Tested on: 3T3-L1 cells
Assay: Lipid accumulation evaluation, Oil red O staining of MDI-differentiated adipocytes
Type: cell-based
Details: 5 mM; DMSO-only sample = 100%; absorbance at 500 nm
Procedure: For induction of 3T3-L1 cells into adipocytes, the cells were treated with MDI (5 μg/ml insulin, 0.5 mM IBMX, and 1.0 μM dexamethasone) in DMEM containing 10% FBS and 1% penicillin-streptomycin, followed by induction of differentiation for 2 days. The differentiated 3T3-L1 cells were washed with physiological buffered saline (PBS), and then fixed with 10% formalin for 1 hour. The fixed cells were washed twice with ddH2O, treated with 60% isopropanol for 5 minutes, and then stained with Oil red O solution (dissolved in 60% isopropanol) for 10 minutes. After staining, the cells were washed four times with ddH2O, and de-stained with 100% isopropanol for 10 minutes, and then the cells were observed using a microscope and measured for absorbance at 500 nm.
The result of the sample treated with only DMSO used as a solvent was converted to 100%, and quantitatively measured for lipids.

CC(=O)N[C@@H](CS)C(=O)O [n-acetyl cysteine]
lipid accumulation: 20.6±3.7%

Source: patent publication US11291704B2, “Composition for preventing or treating obesity containing ethanolic extract of Ramulus mori” (Korea University Research and Business Foundation, priority 2016, dated 2022)
